Patent US8586542B2, “Small molecule apoptosis promoters” (Joyant Pharmaceuticals, Inc., priority 2006, dated 2013)
Where two headings read alike, the source gives them in different places.

Assays:
[1] = biological target: T1, truncated XIAP containing only BIR1, BIR2, and BIR3 domains (Homo sapiens, UniProt P98170); assay: Fluorescent polarization assay (Bir binding); settings: competition with 2 nM fluorescein labeled AVPI peptide, room temperature, 1 hour
T1 construct: truncated XIAP containing only BIR1, BIR2, and BIR3 domains
T1 sequence (P98170 1-356 limits assumed): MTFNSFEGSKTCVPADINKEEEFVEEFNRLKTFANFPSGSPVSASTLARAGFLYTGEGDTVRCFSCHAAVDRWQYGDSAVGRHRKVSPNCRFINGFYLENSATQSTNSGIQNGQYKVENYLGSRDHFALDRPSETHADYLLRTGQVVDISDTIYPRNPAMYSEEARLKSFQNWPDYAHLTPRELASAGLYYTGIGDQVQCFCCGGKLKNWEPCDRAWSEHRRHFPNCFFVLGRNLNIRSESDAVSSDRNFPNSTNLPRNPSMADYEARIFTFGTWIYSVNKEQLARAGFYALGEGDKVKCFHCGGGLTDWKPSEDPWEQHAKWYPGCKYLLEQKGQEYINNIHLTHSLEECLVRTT
Description: Increasing concentrations of Smac compounds are incubated with 2 nM of labeled peptide (fluorescein labeled 10 mer peptide with AVPI 4 amino acids at its N terminus-Alexa Fluor 488) and truncated XIAP containing only BIR1, BIR2, and BIR3 domains at room temperature for 1 hour. Fluorescence reading, indicative of the bound portion of the labeled peptide, is measured in milipolarization units (mP). The more compound added, less fluorescein labeled peptide bind to the protein due to the competitive binding and less fluorescence signal is released.
Based on this principle, we obtain the Ki value that evaluates compound's binding affinity.

HCC461 cells = assay: Cell viability assay in HCC461 cells (WST-1); assay type: cell-based; settings: read-out: HCC461 cell
Description: HCC461 cells plated in 96 well plates at 5×10^4/ml cell density are treated with 50× synthetic Smac mimetic compounds (final concentration range between 30 uM and 0.001 uM). After 48 hrs incubation at 37° C. and 5% CO2, viability of the cells are measured using Cell Proliferation Reagent WST-1 assay kit (Roche Cat #11 644 807 001).
The tetrazolium salts are cleaved to formazan by cellular enzymes. An expansion in the number of viable cells results in an increase in the overall activity of mitochondrial dehydrogenases in the samples. This augmentation in the enzyme activity leads to an increase in the amount of formazan dye formed, which directly correlates to the number of metabolically active cells in the culture. Quantification of the formazan dye produced by metabolically active cells by using a microplate (ELISA) reader at 420-480 nm.

Caspase3 in Hela S100 = assay: In-vitro caspase-3 activation assay in Hela S100 extract; assay type: biochemical; settings: 100 nM compound, Hela S100, 1 mM dATP; slope versus control (compound 1 = Caspase std.)
Description: Caspase3 in most cell extracts can be activated by the addition of 1 mM dATP through the mitochondria caspase pathway. […] Taking advantage of this feature, we use 100 nM of synthetic Smac mimetic compound to test its ability to eliminate IAPB in the Hela S100 and fully induce Caspase3 activity. The In Vitro Caspase3 assay is carried out at 30° C., incubating 100 nM compounds with 30 ug of Hela S100, 1 mM dATP, 10 uM Caspase3 fluorogenic substrate (Caspase3 Substrate II, Fluorogenic, #235425 from Calbiochem). The readout is caspase-3 activity represented by relative fluorogenic unit, which is recorded kinetically. The slope in linear region of the curve for each compound is calculated.
The ratio of each synthetic compound's slope versus the slope of control reflects in vitro caspase-3 activation ability of compounds.

[2] = HCC461, 48 hrs incubation, WST-1 viability

Bir binding [1] [µM] | IC50 (HCC461 cells; [2]) [nM] | Caspase % (Caspase3 in Hela S100) [%] | SMILES | IC50 (HCC461 cells; HCC461, 48 h) [nM]
0.158 | 620 | 104 | CN[C@@H](C)C(=O)N[C@H](C(=O)N1CCCC1C(=O)N[C@@H]1CCCc2ccccc21)[C@@H](C)OCCCCCCO[C@H](C)[C@H](NC(=O)[C@H](C)NC)C(=O)N1CCC[C@H]1C(=O)N[C@@H]1CCCc2ccccc21.Cl.Cl (some centres unmarked) [Compound 14] | 
0.18 | 520 | 99 | CN[C@@H](C)C(=O)N[C@@H](Cc1cn(CCn2cc(C[C@H](NC(=O)[C@H](C)NC)C(=O)N3CCC[C@H]3C(=O)N[C@@H]3CCCc4ccccc43)nn2)nn1)C(=O)N1CCC[C@H]1C(=O)N[C@@H]1CCCc2ccccc21.Cl.Cl [Compound 20] | 
0.3 | 20 | 99 | CN[C@@H](C)C(=O)N[C@@H](CCCc1ccc(C[C@H](NC(=O)[C@H](C)NC)C(=O)N2CCC[C@H]2C(=O)N[C@@H]2CCCc3ccccc32)cc1)C(=O)N1CCC[C@H]1C(=O)N[C@@H]1CCCc2ccccc21.Cl.Cl [Compound 41] | 
0.2 |  | 102 | CN[C@@H](C)C(=O)N[C@@H](CCCc1ccc([C@H](NC(=O)[C@H](C)NC)C(=O)N2CCC[C@H]2C(=O)N[C@@H]2CCCc3ccccc32)cc1)C(=O)N1CCC[C@H]1C(=O)N[C@@H]1CCCc2ccccc21.Cl.Cl [Compound 38] | 
0.188 | 70 | 105 | CN[C@@H](C)C(=O)N[C@@H](CC#CC#CCO[C@H](C)[C@H](NC(=O)[C@H](C)NC)C(=O)N1CCCC1C(=O)N[C@@H]1CCCc2ccccc21)C(=O)N1CCCC1C(=O)N[C@@H]1CCCc2ccccc21.Cl.Cl (some centres unmarked) [Compound 13] | 
0.19 | 20 | 99 | CN[C@@H](C)C(=O)N[C@@H](CCCCNC(=O)c1cccc(C(=O)NCCCC[C@H](NC(=O)[C@H](C)NC)C(=O)N2CCC[C@H]2C(=O)N[C@@H]2CCCc3ccccc32)c1)C(=O)N1CCC[C@H]1C(=O)N[C@@H]1CCCc2ccccc21.Cl.Cl [Compound 47] | 
0.19 | 50 | 98 | CN[C@@H](C)C(=O)N[C@@H](Cc1ccc(C#CC[C@H](NC(=O)[C@H](C)NC)C(=O)N2CCC[C@H]2C(=O)N[C@@H]2CCCc3ccccc32)cc1)C(=O)N1CCC[C@H]1C(=O)NC1CCCc2ccccc21.Cl (some centres unmarked) [Compound 36] | 
0.136 | 690 | 98 | CN[C@@H](C)C(=O)N[C@@H](Cc1cn(CCCn2cc(C[C@H](NC(=O)[C@H](C)NC)C(=O)N3CCC[C@H]3C(=O)N[C@@H]3CCCc4ccccc43)nn2)nn1)C(=O)N1CCC[C@H]1C(=O)N[C@@H]1CCCc2ccccc21.Cl.Cl [Compound 17] | 
0.2 | 56 | 103 | CN[C@@H](C)C(=O)N[C@@H](CCCCNC(=O)NCCCC[C@H](NC(=O)[C@H](C)NC)C(=O)N1CCC[C@H]1C(=O)N[C@@H]1CCCc2ccccc21)C(=O)N1CCC[C@H]1C(=O)N[C@@H]1CCCc2ccccc21.Cl.Cl [Compound 48] | 
0.2 | 20 | 97 | CN[C@@H](C)C(=O)N[C@@H](CCCCNC(=O)CC(=O)NCCCC[C@H](NC(=O)[C@H](C)NC)C(=O)N1CCC[C@H]1C(=O)N[C@@H]1CCCc2ccccc21)C(=O)N1CCC[C@H]1C(=O)N[C@@H]1CCCc2ccccc21.Cl.Cl [Compound 50] | 
0.638 | 80 | 87 | CCC[C@H](NC)C(=O)N[C@@H](CC#CC#CC[C@H](NC(=O)[C@H](C)NC)C(=O)N1CCC[C@H]1C(=O)N[C@@H]1CCCc2ccccc21)C(=O)N1CCC[C@H]1C(=O)N[C@@H]1CCCc2ccccc21.Cl.Cl [Compound 15] | 
0.2 | 70 | 102 | CN[C@@H](C)C(=O)N[C@@H](CCCc1ccc([C@H](NC(=O)[C@H](C)NC)C(=O)N2CCC[C@H]2C(=O)N[C@@H]2CCCc3ccccc32)cc1)C(=O)N1CCC[C@H]1C(=O)N[C@@H]1CCCc2ccccc21 [Compound 28] | 

Further lines, the molecule ahead of its results:

SMILES | Bir binding [1] [µM] | IC50 (HCC461 cells; [2]) [nM] | Caspase % (Caspase3 in Hela S100) [%] | IC50 (HCC461 cells; HCC461, 48 h) [nM]
CN[C@@H](C)C(=O)N[C@@H](Cc1nnn2c1-c1c(C[C@H](NC(=O)[C@H](C)NC)C(=O)N3CCC[C@H]3C(=O)N[C@@H]3CCCc4ccccc43)nnn1CCC2)C(=O)N1CCCC1C(=O)N[C@@H]1CCCc2ccccc21.Cl.Cl (some centres unmarked) [Compound 18] | 0.176 | 760 | 88 | 
CNC(C)C(=O)N[C@@H](CC#CC#CC[C@H](NC(=O)[C@H](C)NC)C(=O)N1CCC[C@H]1C(=O)NC(c1ccccc1)c1ccccc1)C(=O)N1CCC[C@H]1C(=O)NC(c1ccccc1)c1ccccc1 (some centres unmarked) [Compound 3] | 0.12 | 26 | 48 | 
CN[C@@H](C)C(=O)N[C@H](C(=O)N1CCC[C@H]1C(=O)N[C@@H]1CCCc2ccccc21)[C@@H](C)OCC#CC=CCO[C@H](C)[C@H](NC(=O)[C@H](C)NC)C(=O)N1CCC[C@H]1C(=O)N[C@@H]1CCCc2ccccc21.Cl.Cl [Compound 11] | 0.172 | 12 | 94 | 
CN[C@@H](C)C(=O)N[C@H](C(=O)N1CCC[C@H]1C(=O)N[C@@H]1CCCc2ccccc21)c1ccc(C#CCO[C@H](C)[C@H](NC(=O)[C@H](C)NC)C(=O)N2CCC[C@H]2C(=O)N[C@@H]2CCCc3ccccc32)cc1 [Compound 32] | 0.08 | 5 | 109 | 
CN[C@@H](C)C(=O)N[C@@H](Cc1ccc(OCCCCOc2ccc(C[C@H](NC(=O)[C@H](C)NC)C(=O)N3CCCC3C(=O)N[C@@H]3CCCc4ccccc43)cc2)cc1)C(=O)N1CCCC1C(=O)N[C@@H]1CCCc2ccccc21.Cl.Cl (some centres unmarked) [Compound 45] | 0.15 | 2 | 136 | 
CN[C@@H](C)C(=O)N[C@H](C(=O)N1CCC[C@H]1C(=O)N[C@@H]1CCCc2ccccc21)[C@@H](C)OCc1nnn2c1-c1c(CO[C@H](C)[C@H](NC(=O)[C@H](C)NC)C(=O)N3CCC[C@H]3C(=O)N[C@@H]3CCCc4ccccc43)nnn1CCC2.Cl.Cl [Compound 19] | 0.14 | 240 | 98 | 
CNC(C)C(=O)N[C@@H](CCCCCC[C@H](NC(=O)[C@H](C)NC)C(=O)N1CCC[C@H]1C(=O)NCc1ccccc1)C(=O)N1CCC[C@H]1C(=O)NCc1ccccc1 (some centres unmarked) [Compound 6] | 0.2 | 2100 | 82 | 
CN[C@@H](C)C(=O)N[C@@H](CCCCCC[C@H](NC(=O)[C@H](C)NC)C(=O)N1CCC[C@H]1C(=O)NC(C)c1ccccc1)C(=O)N1CCC[C@H]1C(=O)NC(C)c1ccccc1 (some centres unmarked) [Compound 8] | 0.27 | 70 | 93 | 
CN[C@@H](C)C(=O)N[C@@H](CC#CC#CC[C@H](NC(=O)[C@H](C)NC)C(=O)N1CCC[C@H]1C(=O)N[C@@H]1CCCc2ccccc21)C(=O)N1CCC[C@H]1C(=O)N[C@@H]1CCCc2ccccc21 [Compound 1] | 0.07 |  | 100 | 4
CN[C@@H](C)C(=O)N[C@@H](CC#CC#CC[C@H](NC(=O)[C@H](C)NC)C(=O)N1CCC[C@H]1C(=O)NC(C)c1ccccc1)C(=O)N1CCC[C@H]1C(=O)NC(C)c1ccccc1 (some centres unmarked) [Compound 7] | 0.144 | 373 | 101 | 
C=C(C#CCO[C@H](C)[C@H](NC(=O)[C@H](C)NC)C(=O)N1CCC[C@H]1C(=O)N[C@@H]1CCCc2ccccc21)CO[C@H](C)[C@H](NC(=O)[C@H](C)NC)C(=O)N1CCC[C@H]1C(=O)N[C@@H]1CCCc2ccccc21.Cl.Cl [Compound 42] | 0.2 | 240 | 109 | 
CN[C@@H](C)C(=O)N[C@H](C(=O)N1CCC[C@H]1C(=O)N[C@@H]1CCCc2ccccc21)[C@@H](C)OCc1nnn2c1-c1c(CO[C@H](C)[C@H](NC(=O)[C@H](C)NC)C(=O)N3CCC[C@H]3C(=O)N[C@@H]3CCCc4ccccc43)nnn1CC2.Cl.Cl [Compound 23] | 0.13 | 490 | 109 | 
CN[C@@H](C)C(=O)N[C@@H](Cc1nnn2c1-c1c(C[C@H](NC(=O)[C@H](C)NC)C(=O)N3CCC[C@H]3C(=O)N[C@@H]3CCCc4ccccc43)nnn1CC2)C(=O)N1CCCC1C(=O)N[C@@H]1CCCc2ccccc21.Cl.Cl (some centres unmarked) [Compound 21] | 1.13 | 2200 | 70 | 
